Experimental data taken from patent US20070049564A1 (Wyeth, priority 2005, published 2007).
Like-named read-outs stand apart in the source and are kept apart here.

What was measured:
[1] = test system: Staph. aureus Smith; experiment: In vivo activity (oral, iv; ED50) against Staph. aureus Smith in mice
Description: Representative examples of compounds of Formula I were tested for the oral efficacy using S. aureus Smith in mice.

[2] = test system: Staph.; experiment: Range of MIC for Staph. strains, including MRSA; conditions: for MIC: Staphylococcus aureus, MRSA
[3] = test system: Staph. aureus Smith; experiment: In vitro activity (MIC) against Staph. aureus Smith; format: cell-based; conditions: Staphylococcus aureus; Table 8
[4] = test system: E. coli; experiment: Range of MIC for E. coli strains; conditions: for MIC: Escherichia coli
[5] = test system: E. coli GC 2234; experiment: MIC, broth microdilution
[6] = test system: S. cholerasius GC 1355; experiment: MIC, broth microdilution
Description: (§1) Antimicrobial susceptibility testing. The in vitro activities of the antibiotics are determined by the broth microdilution method as recommended by the National Committee for Clinical Laboratory Standards (NCCLS) (1). Mueller-Hinton II broth (MHBII)(BBL Cockeysville, Md.) is the medium employed in the testing procedures. Microtiter plates containing serial dilutions of each antimicrobial agent are inoculated with each organism to yield the appropriate density (10^5 CFU/ml) in a 100 μl final volume. The plates are incubated for 18-22 hours at 35° C. in ambient air.
(§2) Presented in Tables I-XIII are representative compounds of Formula I which were evaluated against a panel of 40 selected gram-positive and gram-negative bacteria strains by pre-incubation in water, mouse serum or human serum. Representative compounds were first incubated in mouse serum for an hour prior to the in vitro testing against a panel of selected gram-positive and gram-negative bacteria strains. All compounds were also pre-incubated in water for an hour prior to testing as control. Representative compounds of Formula I were incubated in human serum prior to MIC determination.

[7] = test system: S. pneumoniae+ GC 4465; experiment: MIC, broth microdilution
[8] = test system: E. faecium GC 4556; experiment: MIC, broth microdilution
[9] = test system: Salmonella spp. GC 235; experiment: MIC, broth microdilution
Description: as §1
(§3) Representative compounds were first incubated in mouse serum for an hour prior to the in vitro testing against a panel of selected gram-positive and gram-negative bacteria strains. All compounds were also pre-incubated in water for an hour prior to testing as control.

[10] = test system: S. typhimurium GC 2172; experiment: MIC, broth microdilution
[11] = test system: S. aureus GC 6467; experiment: MIC, broth microdilution
Description: as §1, §3

[12] = test system: S. aureus GC 1131; experiment: MIC, broth microdilution
Description: as §1, §3

[13] = test system: S. aureus GC 6335; experiment: MIC, broth microdilution
[14] = test system: E. faecalis GC 2265; experiment: MIC, broth microdilution
[15] = test system: E. coli GC 2235; experiment: MIC, broth microdilution
[16] = test system: E. coli GC 2271; experiment: MIC, broth microdilution
[17] = test system: S. pneumoniae* GC 4465; experiment: MIC, broth microdilution
[18] = test system: E. coli GC 3226; experiment: MIC, broth microdilution
[19] = test system: S. aureus GC 6466; experiment: MIC, broth microdilution
[20] = test system: S. agalactiae GC 4564; experiment: MIC, broth microdilution
[21] = test system: E. coli GC 2236; experiment: MIC, broth microdilution
[22] = test system: S. epidermidis GC 4935; experiment: MIC, broth microdilution
[23] = test system: E. coli GC 1073; experiment: MIC, broth microdilution
[24] = test system: E. coli GC 2270; experiment: MIC, broth microdilution
Description: as §1
Representative compounds were first incubated in mouse serum for an hour prior to the in vitro testing against a panel of selected gram-positive and gram-negative bacteria strains. All compounds were also pre-incubated in water for an hour prior to testing as control. Representative compounds of Formula I were incubated in human serum prior to MIC determination.

[25] = test system: E. coli GC 4560; experiment: MIC, broth microdilution
[26] = test system: E. faecium GC 2243; experiment: MIC, broth microdilution
[27] = test system: E. faecalis GC 4555; experiment: MIC, broth microdilution
[28] = test system: E. coli GC 6465; experiment: MIC, broth microdilution
[29] = test system: S. aureus GC 2216; experiment: MIC, broth microdilution
[30] = test system: S. aureus GC 6469; experiment: MIC, broth microdilution
[31] = test system: E. faecalis GC 2242; experiment: MIC, broth microdilution
[32] = test system: E. coli GC 2233; experiment: MIC, broth microdilution
[33] = test system: S. pyogenes GC 4563; experiment: MIC, broth microdilution
[34] = test system: E. coli GC 2231; experiment: MIC, broth microdilution
[35] = test system: S. aureus GC 1079; experiment: MIC, broth microdilution
[36] = test system: E. faecalis GC 2267; experiment: MIC, broth microdilution
[37] = test system: E. coli GC 2232; experiment: MIC, broth microdilution
[38] = test system: S. aureus GC 4536; experiment: MIC, broth microdilution
[39] = test system: E. coli GC 2203; experiment: MIC, broth microdilution
Description: Antimicrobial susceptibility testing. The in vitro activities of the antibiotics are determined by the broth microdilution method as recommended by the National Committee for Clinical Laboratory Standards (NCCLS) (1). Mueller-Hinton II broth (MHBII)(BBL Cockeysville, Md.) is the medium employed in the testing procedures. Microtiter plates containing serial dilutions of each antimicrobial agent are inoculated with each organism to yield the appropriate density (10^5 CFU/ml) in a 100 μl final volume. The plates are incubated for 18-22 hours at 35° C. in ambient air. […] Standard Pharmacological Test Procedures
as §2

[40] = test system: P. aeruginosa GC 2214; experiment: MIC, broth microdilution
[41] = test system: E. coli GC 2272; experiment: MIC, broth microdilution
[42] = test system: Salmonella spp. GC 566; experiment: MIC, broth microdilution
[43] = test system: E. coli GC 4559; experiment: MIC, broth microdilution
[44] = test system: c. albicans GC 3066; experiment: MIC, broth microdilution

CCCN(CC(=O)Nc1cc(N(C)C)c2c(c1O)C(=O)C1=C(O)[C@]3(O)C(=O)C(C(N)=O)=C(O)[C@@H](N(C)C)[C@@H]3C[C@@H]1C2)C(=O)OCOC(=O)CC(C)(C)C [Example 35, ({[(2-{[(5aR,6aS,7S,10aS)-9-(aminocarbonyl)-4,7-bis(dimethylamino)-1,8,10a,11-tetrahydroxy-10,12-dioxo-5,5a,6,6a,7,10,10a,12-octahydrotetracen-2-yl]amino}-2-oxoethyl)(propyl)amino]carbonyl}oxy)methyl 3,3-dimethylbutanoate]
2 to 4 µg/mL: MIC ([2]; read-out: Range of MIC, Staph (Mouse Serum)) | MIC ([2]; read-out: Range of MIC, Staph (Water)) | MIC ([2]; read-out: Range of MIC, Staph. (mouse serum)) | MIC ([2]; read-out: Range of MIC, Staph. (water))
4 to 8 µg/mL: MIC ([4]; 20 h, read-out: Range of MIC, E. coli (Mouse Serum)) | MIC ([4]; read-out: Range of MIC, E. coli (mouse serum))
0.43 mg/kg: ED50 ([1]; Staphylococcus aureus, in Mus musculus, iv, read-out: ED50 SIV (Staph aureus Smith)) | ED50 ([1]; iv, read-out: ED50 Staph Smith SIV)
8 to 64 µg/mL: MIC ([4]; read-out: Range of MIC, E. coli (Water)) | MIC ([4]; read-out: Range of MIC, E. coli (water))
3.5 mg/kg: ED50 ([1]; Staphylococcus aureus, in Mus musculus, po, read-out: ED50 SOD (Staph aureus Smith)) | ED50 ([1]; Staphylococcus aureus, in Mus musculus, po, read-out: ED50 Staph Smith SOD)
4 µg/mL: MIC [3]

CCCN(CC(=O)Nc1cc(N(C)C)c2c(c1O)C(=O)C1=C(O)[C@@]3(O)C(=O)C(C(N)=O)=C(O)[C@@H](N(C)C)C3CC1C2)C(=O)OCc1oc(=O)oc1C (stereo partly drawn) [Example 108, (5-methyl-2-oxo-1,3-dioxol-4-yl)methyl 2-{[(7S,10aR)-9-(aminocarbonyl)-4,7-bis(dimethylamino)-1,8,10a,11-tetrahydroxy-10,12-dioxo-5,5a,6,6a,7,10,10a,12-octahydrotetracen-2-yl]amino}-2-oxoethyl(propyl)carbamate]
>2 mg/kg: ED50 Staph Smith SIV ([1]; single intravenous dose (SIV))
0.5 to 2 µg/mL: Range of MIC, E. coli (Mouse Serum) ([4]; Mouse Serum, Table 1)
0.25 to 2 µg/mL: Range of MIC, Staph (Mouse Serum) ([2]; Mouse Serum, including MRSA, Table 1)
0.25 UG/ML: MIC ([12]; pre-incubation in mouse serum) | MIC ([25]; pre-incubation in water) | MIC ([30]; pre-incubation in mouse serum) | MIC ([41]; pre-incubation in mouse serum)
8 UG/ML: MIC ([11]; pre-incubation in water) | MIC ([28]; pre-incubation in mouse serum) | MIC ([42]; pre-incubation in water)
4 UG/ML: MIC ([9]; pre-incubation in water) | MIC ([10]; pre-incubation in mouse serum) | MIC ([34]; pre-incubation in water) | MIC ([35]; pre-incubation in water)
1 to 8 µg/mL: Range of MIC, Staph (Water) ([2]; Water, including MRSA, Table 1)
>32 mg/kg: ED50 Staph Smith SOD ([1]; single oral dose (SOD))
32 UG/ML: MIC ([6]; pre-incubation in mouse serum) | MIC ([10]; pre-incubation in water) | MIC ([40]; pre-incubation in water)
>64 UG/ML: MIC ([44]; pre-incubation in mouse serum) | MIC ([44]; pre-incubation in water)
0.50 UG/ML: MIC ([5]; pre-incubation in mouse serum) | MIC ([8]; pre-incubation in mouse serum) | MIC ([12]; pre-incubation in water) | MIC ([15]; pre-incubation in mouse serum) | MIC ([16]; pre-incubation in mouse serum) | MIC ([16]; pre-incubation in water) | MIC ([18]; pre-incubation in mouse serum) | MIC ([19]; pre-incubation in mouse serum) | MIC ([21]; pre-incubation in mouse serum) | MIC ([23]; pre-incubation in mouse serum) | MIC ([24]; pre-incubation in mouse serum) | MIC ([26]; pre-incubation in mouse serum) | MIC ([26]; pre-incubation in water) | MIC ([27]; pre-incubation in mouse serum) | MIC ([27]; pre-incubation in water) | MIC ([29]; pre-incubation in mouse serum) | MIC ([31]; pre-incubation in mouse serum) | MIC ([32]; pre-incubation in mouse serum) | MIC ([38]; pre-incubation in mouse serum) | MIC ([39]; pre-incubation in mouse serum) | MIC ([41]; pre-incubation in water) | MIC ([43]; pre-incubation in mouse serum)
2 UG/ML: MIC ([5]; pre-incubation in water) | MIC ([7]; pre-incubation in water) | MIC ([11]; pre-incubation in mouse serum) | MIC ([13]; pre-incubation in water) | MIC ([14]; pre-incubation in water) | MIC ([21]; pre-incubation in water) | MIC ([22]; pre-incubation in water) | MIC ([23]; pre-incubation in water) | MIC ([34]; pre-incubation in mouse serum) | MIC ([35]; pre-incubation in mouse serum) | MIC ([36]; pre-incubation in water) | MIC ([37]; pre-incubation in water)
1 UG/ML: MIC ([7]; pre-incubation in mouse serum) | MIC ([8]; pre-incubation in water) | MIC ([9]; pre-incubation in mouse serum) | MIC ([13]; pre-incubation in mouse serum) | MIC ([14]; pre-incubation in mouse serum) | MIC ([15]; pre-incubation in water) | MIC ([18]; pre-incubation in water) | MIC ([19]; pre-incubation in water) | MIC ([22]; pre-incubation in mouse serum) | MIC ([24]; pre-incubation in water) | MIC ([29]; pre-incubation in water) | MIC ([30]; pre-incubation in water) | MIC ([31]; pre-incubation in water) | MIC ([32]; pre-incubation in water) | MIC ([36]; pre-incubation in mouse serum) | MIC ([37]; pre-incubation in mouse serum) | MIC ([38]; pre-incubation in water) | MIC ([39]; pre-incubation in water) | MIC ([42]; pre-incubation in mouse serum) | MIC ([43]; pre-incubation in water)
16 UG/ML: MIC ([40]; pre-incubation in mouse serum)
0.5 to 4 µg/mL: Range of MIC, E. coli (Water) ([4]; Water, Table 1)
0.12 UG/ML: MIC ([17]; pre-incubation in mouse serum) | MIC ([17]; pre-incubation in water) | MIC ([20]; pre-incubation in mouse serum) | MIC ([20]; pre-incubation in water) | MIC ([25]; pre-incubation in mouse serum) | MIC ([33]; pre-incubation in mouse serum) | MIC ([33]; pre-incubation in water)
64 UG/ML: MIC ([6]; pre-incubation in water) | MIC ([28]; pre-incubation in water)
